Experimental data reported in patent publication US6620828B2, “Thiazole compounds and pharmaceutical compositions for inhibiting protein kinases and methods for their use” (Agouron Pharmaceuticals, Inc., priority 1999, dated 2003).
Where two headings read alike, the source gives them in different places.

Test system: human umbilical vein endothelial cells (HUVEC)
Assay: HUVEC proliferation assay
Format: cell-based
Conditions: for inhibition at 0.15 µM / inhibition at 0.05 µM / inhibition at 0.001 µM / inhibition at 0.01 µM: Homo sapiens, HUVEC; for inhibition at 0.15 µM / % inhibition @ 150 nM: Table I screening results, 150 nM; for inhibition at 0.05 µM: 50 nM; for inhibition at 0.001 µM: 1 nM; for inhibition at 0.01 µM: 10 nM
Procedure: HUVEC Proliferation Assay
This assay determines the ability of a test compound to inhibit the growth factor-stimulated proliferation of human umbilical vein endothelial cells (“HUVEC”). HUVEC cells (passage 3-4, Clonetics, Corp.) were thawed into EGM2 culture medium (Clonetics Corp) in T75 flasks. Fresh EGM2 medium was added to the flasks 24 hours later. Four or five days later, cells were exposed to another culture medium (F12K medium supplemented with 10% fetal bovine serum (FBS), 60 μg/ml endothelial cell growth supplement (ECGS), and 0.1 mg/ml heparin). Exponentially-growing HUVEC cells were used in experiments thereafter. Ten to twelve thousand HUVEC cells were plated in 96-well dishes in 100 μl of rich, culture medium (described above). The cells were allowed to attach for 24 hours in this medium. The medium was then removed by aspiration and 105 μl of starvation media (F12K+1% FBS) was added to each well. After 24 hours, 15 μl of test agent dissolved in 1% DMSO in starvation medium or this vehicle alone was added into each treatment well; the final DMSO concentration was 0.1%. One hour later, 30 μl of VEGF (30 ng/ml) in starvation media was added to all wells except those containing untreated controls; the final VEGF concentration was 6 ng/ml. Cellular proliferation was quantified 72 hours later by MTT dye reduction, at which time cells were exposed for 4 hours MTT (Promega Corp.). Dye reduction was stopped by addition of a stop solution (Promega Corp.) and absorbance at 595 λ was determined on a 96-well spectrophotometer plate reader.
IC50 values were calculated by curve-fitting the response of A^595 to various concentrations of the test agent; typically, seven concentrations separated by 0.5 log were employed, with triplicate wells at each concentration. For screening compound library plates, one or two concentrations (one well per concentration) were employed, and the % inhibition was calculated by the following formula:
% inhibition=(control−test) divided by (control−starvation) […]
control=A^595 when VEGF is present without test agent test=A^595 when VEGF is present with test agent starvation=A^595 when VEGF and test agent are both absent.

[1] = crude combinatorial amide library
[2] = Inhibition of HUVEC Proliferation, crude combinatorial urea library, read-out: % inhibition @ 50 nM
[3] = table following Table II (untitled), crude combinatorial library
[4] = table following Table II (untitled), crude combinatorial library, read-out: % inhibition @ 10 nM
[5] = crude combinatorial urea library, read-out: Inhibition of HUVEC Proliferation % inhibition @ 10 nM
[6] = crude combinatorial urea library, read-out: Inhibition of HUVEC Proliferation % inhibition @ 50 nM
[7] = Inhibition of HUVEC Proliferation, crude combinatorial urea library, read-out: Inhibition @ 50 nM
[8] = Table II screening results, crude combinatorial amide library
[9] = Table II screening results, crude combinatorial amide library, read-out: % inhibition @ 10 nM

COc1cc(Nc2nc(N)c(-c3nc(-c4cccc(NC(=O)Cc5ccc6ccccc6c5)c4)cs3)s2)cc(OC)c1OC
inhibition at 0.15 µM [1]: -7%

COc1cccc(C(=O)Nc2cc(-c3csc(-c4sc(NC(=O)NCCCN5CCCCC5)nc4N)n3)c(F)cc2F)c1
inhibition at 0.05 µM [2]: 89%

COc1cc(Nc2nc(N)c(-c3nc(-c4cccc(NC(=O)CCCc5ccccc5)c4)cs3)s2)cc(OC)c1OC
inhibition at 0.15 µM [1]: 15%

COc1cc(Nc2nc(N)c(-c3nc(-c4cc(NC(=O)C5C(C=C(C)C)C5(C)C)ccc4C)no3)s2)cc(OC)c1OC (centres unmarked)
inhibition at 0.001 µM [3]: 8% | inhibition at 0.01 µM [4]: -11%

COc1cc(Nc2nc(N)c(-c3nc(-c4cccc(NC(=O)c5ccc(CCCl)cc5)c4)cs3)s2)cc(OC)c1OC
inhibition at 0.15 µM [1]: 59%

COc1cc(Nc2nc(N)c(-c3nc(-c4cc(NC(=O)C5CCSCN5C)ccc4C)no3)s2)cc(OC)c1OC (centres unmarked)
inhibition at 0.001 µM [3]: 14% | inhibition at 0.01 µM [4]: 29%

CNC(=O)CNC(=O)Nc1nc(N)c(-c2nc(-c3cccc(NC(=O)c4cccc(OC)c4)c3)cs2)s1
inhibition at 0.01 µM [5]: 42% | inhibition at 0.05 µM [6]: 23%

COc1cccc(C(=O)Nc2cccc(-c3csc(-c4sc(NC(=O)NCC(F)(F)F)nc4N)n3)c2)c1
inhibition at 0.01 µM [5]: 20% | inhibition at 0.05 µM [6]: 15%

CCN(CC)CCCNC(=O)Nc1nc(N)c(-c2nc(-c3cc(NC(=O)c4cccc(OC)c4)c(F)cc3F)no2)s1
inhibition at 0.05 µM [7]: 85%

COc1cc(Nc2nc(N)c(-c3nc(-c4cccc(NC(=O)c5ccc6ccccc6n5)c4)cs3)s2)cc(OC)c1OC
inhibition at 0.15 µM [1]: -11%

COc1cccc(C(=O)Nc2cc(-c3noc(-c4sc(NC(=O)NCC5CCCO5)nc4N)n3)c(F)cc2F)c1 (centres unmarked) [drawing 762]
inhibition at 0.05 µM [7]: 107%

COc1cc(Nc2nc(N)c(-c3nc(-c4cccc(NC(=O)C(O)(c5ccccc5)c5ccccc5)c4)cs3)s2)cc(OC)c1OC
inhibition at 0.15 µM [1]: -8%

COc1cc(Nc2nc(N)c(-c3nc(-c4cccc(NC(=O)C(Cc5ccccc5)c5ccccc5)c4)cs3)s2)cc(OC)c1OC (centres unmarked)
inhibition at 0.15 µM [1]: 11%

COc1cccc(C(=O)Nc2cccc(-c3csc(-c4sc(NC(=O)NCC(O)CO)nc4N)n3)c2)c1 (centres unmarked)
inhibition at 0.01 µM [5]: -3% | inhibition at 0.05 µM [6]: 42%

COc1cc(Nc2nc(N)c(-c3nc(-c4cccc(NC(=O)/C=C/c5cccc(Cl)c5)c4)cs3)s2)cc(OC)c1OC
% inhibition @ 150 nM [1]: 0%

COc1cccc(C(=O)Nc2cc(-c3csc(-c4sc(NC(=O)NCCC(N)=O)nc4N)n3)c(F)cc2F)c1
inhibition at 0.05 µM [2]: 48%

COc1cccc(C(=O)Nc2cc(-c3csc(-c4sc(NC(=O)NC(C)CO)nc4N)n3)c(F)cc2F)c1 (centres unmarked)
inhibition at 0.05 µM [2]: 98%

CCN(CCNC(=O)Nc1nc(N)c(-c2nc(-c3cccc(NC(=O)c4cccc(OC)c4)c3)cs2)s1)c1cccc(C)c1
inhibition at 0.01 µM [5]: -10% | inhibition at 0.05 µM [6]: 125%

COc1cccc(C(=O)Nc2cc(-c3noc(-c4sc(NC(=O)NC(CO)CO)nc4N)n3)c(F)cc2F)c1
inhibition at 0.05 µM [7]: 31%

CNC(=O)Nc1nc(N)c(-c2nc(-c3cccc(NC(=O)C(=O)Cc4ccccc4)c3)cs2)s1
inhibition at 0.001 µM [8]: 8% | inhibition at 0.01 µM [9]: 25%

COc1cc(Nc2nc(N)c(-c3nc(-c4cccc(NC(=O)CC(c5ccccc5)c5ccccc5)c4)cs3)s2)cc(OC)c1OC
inhibition at 0.15 µM [1]: 10%

COc1cc(Nc2nc(N)c(-c3nc(-c4cccc(NC(=O)C(=O)Cc5ccccc5)c4)cs3)s2)cc(OC)c1OC
inhibition at 0.15 µM [1]: 20%

COc1cccc(C(=O)Nc2cc(-c3csc(-c4sc(NC(=O)NCCOCCO)nc4N)n3)c(F)cc2F)c1 [drawing 699]
inhibition at 0.05 µM [2]: 98%

COc1cccc(C(=O)Nc2cc(-c3csc(-c4sc(NC(=O)NCCC5CCCN5C)nc4N)n3)c(F)cc2F)c1 (centres unmarked)
inhibition at 0.05 µM [2]: 27%

COc1cc(Nc2nc(N)c(-c3nc(-c4cccc(NC(=O)/C=C/c5ccoc5)c4)cs3)s2)cc(OC)c1OC
% inhibition @ 150 nM [1]: 0%

COc1cc(Nc2nc(N)c(-c3nc(-c4cc(NC(=O)C5CCCN5C(C)=O)ccc4C)no3)s2)cc(OC)c1OC (centres unmarked)
inhibition at 0.001 µM [3]: -13% | inhibition at 0.01 µM [4]: -24%

COc1cccc(C(=O)Nc2cc(-c3noc(-c4sc(NC(=O)NCC(C)N(C)C)nc4N)n3)c(F)cc2F)c1 (centres unmarked)
inhibition at 0.05 µM [7]: -25%

CNC(=O)Nc1nc(N)c(-c2nc(-c3cccc(NC(=O)c4cc(=O)cco4)c3)cs2)s1
inhibition at 0.001 µM [8]: 47% | inhibition at 0.01 µM [9]: 27%

COc1cc(Nc2nc(N)c(-c3nc(-c4cccc(NC(=O)Cc5ccc(F)cc5)c4)cs3)s2)cc(OC)c1OC
inhibition at 0.15 µM [1]: -7%

COc1cc(Nc2nc(N)c(-c3nc(-c4cc(NC(=O)c5cc(=O)cco5)ccc4C)no3)s2)cc(OC)c1OC
inhibition at 0.001 µM [3]: 19% | inhibition at 0.01 µM [4]: 37%

COc1cc(Nc2nc(N)c(-c3nc(-c4cc(NC(=O)C5CC6C=CCC(C6)C5)ccc4C)no3)s2)cc(OC)c1OC (centres unmarked)
inhibition at 0.001 µM [3]: 18% | inhibition at 0.01 µM [4]: 18%

CNC(=O)Nc1nc(N)c(-c2nc(-c3cccc(NC(=O)C(C)ON=C(C)C)c3)cs2)s1 (centres unmarked)
inhibition at 0.001 µM [8]: 6% | inhibition at 0.01 µM [9]: -7%

CNC(=O)Nc1nc(N)c(-c2nc(-c3cccc(NC(=O)/C=C/c4cccc(OC)c4)c3)cs2)s1
inhibition at 0.001 µM [8]: -1% | inhibition at 0.01 µM [9]: -12%

COc1cccc(C(=O)Nc2cc(-c3csc(-c4sc(NC(=O)NCCS(=O)(=O)O)nc4N)n3)c(F)cc2F)c1
inhibition at 0.05 µM [2]: 27%

CNC(=O)Nc1nc(N)c(-c2nc(-c3cccc(NC(=O)Cc4cc(F)ccc4F)c3)cs2)s1
inhibition at 0.001 µM [8]: -1% | inhibition at 0.01 µM [9]: 4%

COc1cc(Nc2nc(N)c(-c3nc(-c4cc(NC(=O)CC5CCC6CCC5C6)ccc4C)no3)s2)cc(OC)c1OC (centres unmarked)
inhibition at 0.001 µM [3]: -7% | inhibition at 0.01 µM [4]: 47%

COc1cc(Nc2nc(N)c(-c3nc(-c4cccc(NC(=O)c5ccc(NC(C)=O)cc5)c4)cs3)s2)cc(OC)c1OC
inhibition at 0.15 µM [1]: 16%

COc1cccc(C(=O)Nc2cc(-c3noc(-c4sc(NC(=O)NCCC(C)=O)nc4N)n3)c(F)cc2F)c1
inhibition at 0.05 µM [7]: 6%

COc1ccccc1/C=C\C(=O)Nc1cccc(-c2csc(-c3sc(Nc4cc(OC)c(OC)c(OC)c4)nc3N)n2)c1
inhibition at 0.15 µM [1]: 53%

COc1cccc(C(=O)Nc2cccc(-c3csc(-c4sc(NC(=O)NCCO)nc4N)n3)c2)c1
inhibition at 0.01 µM [5]: 38%

COc1cc(Nc2nc(N)c(-c3nc(-c4cccc(NC(=O)c5cc6cccc(OC)c6o5)c4)cs3)s2)cc(OC)c1OC
inhibition at 0.15 µM [1]: 21%

COc1cccc(C(=O)Nc2cccc(-c3csc(-c4sc(NC(=O)NCC(=O)NO)nc4N)n3)c2)c1
inhibition at 0.01 µM [5]: -1% | inhibition at 0.05 µM [6]: 37%

CCN(CC)CCCNC(=O)Nc1nc(N)c(-c2nc(-c3cccc(NC(=O)c4cccc(OC)c4)c3)cs2)s1
inhibition at 0.01 µM [5]: -7% | inhibition at 0.05 µM [6]: 45%

COc1cccc(C(=O)Nc2cc(-c3csc(-c4sc(NC(=O)NCC(C)(C)CN(C)C)nc4N)n3)c(F)cc2F)c1
inhibition at 0.05 µM [2]: 75%

COc1cc(Nc2nc(N)c(-c3nc(-c4cccc(NC(=O)c5cc6cc(Cl)ccc6[nH]5)c4)cs3)s2)cc(OC)c1OC
inhibition at 0.15 µM [1]: 0%

CNC(=O)Nc1nc(N)c(-c2nc(-c3cccc(NC(=O)c4cc(F)ccc4C)c3)cs2)s1
inhibition at 0.001 µM [8]: -1% | inhibition at 0.01 µM [9]: 78%

COc1cccc(C(=O)Nc2cc(-c3csc(-c4sc(NC(=O)NCC(O)CO)nc4N)n3)c(F)cc2F)c1 (centres unmarked)
inhibition at 0.05 µM [2]: 74%

COc1cccc(C(=O)Nc2cc(-c3noc(-c4sc(NC(=O)NCc5ccc(S(N)(=O)=O)cc5)nc4N)n3)c(F)cc2F)c1
inhibition at 0.05 µM [7]: 82%

COc1cc(Nc2nc(N)c(-c3nc(-c4cccc(NC(=O)CN5C(=O)CSC5=O)c4)cs3)s2)cc(OC)c1OC
inhibition at 0.15 µM [1]: 17%

COc1cccc(C(=O)Nc2cc(-c3noc(-c4sc(NC(=O)NCCCN5CCCCC5C)nc4N)n3)c(F)cc2F)c1 (centres unmarked)
inhibition at 0.05 µM [7]: 96%

COc1cc(Nc2nc(N)c(-c3nc(-c4cccc(NC(=O)Cc5cccc6ccccc56)c4)cs3)s2)cc(OC)c1OC
inhibition at 0.15 µM [1]: 6%

CCC(O)CNC(=O)Nc1nc(N)c(-c2nc(-c3cc(NC(=O)c4cccc(OC)c4)c(F)cc3F)no2)s1 (centres unmarked)
inhibition at 0.05 µM [7]: 93%

COc1cc(Nc2nc(N)c(-c3nc(-c4cc(NC(=O)C5C(C)(C)C5(C)C)ccc4C)no3)s2)cc(OC)c1OC
inhibition at 0.001 µM [3]: -31% | inhibition at 0.01 µM [4]: 32%

COc1cccc(C(=O)Nc2cccc(-c3csc(-c4sc(NC(=O)N[C@H]5CC[C@H](O)CC5)nc4N)n3)c2)c1
inhibition at 0.01 µM [5]: -6% | inhibition at 0.05 µM [6]: 21%
